Experimental findings from patent US7994185B2, “Benzene sulfonamide thiazole and oxazole compounds” (Glaxo Smith Kline LLC, priority 2008, dated 2011) are described below.

Like-named read-outs stand apart in the source and are kept apart here.

Assay [1] deals with T1, BRAFV600E full-length (amino acids 2-766) (Homo sapiens, UniProt P15056, V600E).
T1 construct: His6-tagged BRAFV600E full-length (amino acids 2-766); His6; made in house; host or cells: baculovirus expression system (insect cells)
T1 sequence (P15056 2-766 V600E): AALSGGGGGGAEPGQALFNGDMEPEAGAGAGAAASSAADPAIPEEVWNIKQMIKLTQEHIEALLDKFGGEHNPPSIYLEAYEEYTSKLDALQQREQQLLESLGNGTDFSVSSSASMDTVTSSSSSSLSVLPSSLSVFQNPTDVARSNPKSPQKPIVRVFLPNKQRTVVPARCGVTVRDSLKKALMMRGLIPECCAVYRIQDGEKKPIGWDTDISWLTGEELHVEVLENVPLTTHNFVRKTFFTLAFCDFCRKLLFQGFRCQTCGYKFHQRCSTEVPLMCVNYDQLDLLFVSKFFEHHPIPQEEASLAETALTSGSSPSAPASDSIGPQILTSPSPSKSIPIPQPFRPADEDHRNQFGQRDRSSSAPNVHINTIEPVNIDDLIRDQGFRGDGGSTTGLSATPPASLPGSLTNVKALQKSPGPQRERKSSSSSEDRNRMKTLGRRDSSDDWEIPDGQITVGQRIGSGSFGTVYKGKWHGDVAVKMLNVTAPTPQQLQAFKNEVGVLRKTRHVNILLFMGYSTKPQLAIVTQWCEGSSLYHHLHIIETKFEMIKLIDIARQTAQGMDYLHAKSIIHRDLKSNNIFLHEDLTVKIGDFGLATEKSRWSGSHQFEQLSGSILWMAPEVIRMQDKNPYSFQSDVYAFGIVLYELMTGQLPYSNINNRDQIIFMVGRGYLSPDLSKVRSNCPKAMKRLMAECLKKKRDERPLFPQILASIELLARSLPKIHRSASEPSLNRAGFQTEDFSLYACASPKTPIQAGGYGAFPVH
Description: B-Raf Accelerated MEK ATPase assay (BRAMA). The class given is biochemical. The conditions noted are these: categorized. Summed up: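 Coupled-enzyme readout: ADP generated by MEK-mediated ATP hydrolysis, uncoupled from ERK phosphorylation, is linked to NADH oxidation through pyruvate kinase and lactate dehydrogenase.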

Assay [2] has as its system Human melanoma cancer cells (SK-MEL-28). As to the kind of experiment: Cell growth inhibition assay (CellTiter-Glo), SK-MEL-28. The class given is cell-based.
The subject of assay [3] is Human colon tumor cells (Colo205). As to the kind of experiment: Cell growth inhibition assay (CellTiter-Glo), Colo205. It counts as cell-based. In short, it runs like this: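 Colo205 (and SK-MEL-28) cells in RPMI with 10% FBS were exposed to 10-point 1:3 serial dilutions of compound at 0.2% final DMSO for 3 days at 37 °C. Total ATP, a surrogate for cell number, was read by CellTiter-Glo luminescence, with % growth inhibition relative to DMSO-treated wells.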

The mark [4] stands for this setting: B-Raf Activity, Table 1a, highest pIC50 for the one or more runs.
[5] abbreviates: B-Raf pIC50, Table 1b, later runs, average pIC50 for the one or more runs.
The mark [6] stands for this setting: SK-MEL-28, 72 h, Table 3a, 3 days incubation, read-out: Activity in SK-MEL-28 Tumor Cells.
Setting [7] is: SK-MEL-28, Table 3b, later runs, average for the one or more runs, categorized, read-out: IC50 for SK-MEL-28.
[8] abbreviates: COLO 205, 72 h, Table 2a, 3 days incubation, read-out: Activity in Colo205 Tumor Cells.
Setting [9] is: COLO 205, Table 2b, later runs, average for the one or more runs, categorized, read-out: IC50 for Colo205.
Where [10] appears, read: Table 1b, later runs, average pIC50 for the one or more runs, read-out: B-Raf pIC50 (converted).

On to `O=S(=O)(Nc1cccc(-c2nc(N3CCOCC3)sc2-c2ccnc(NCC3CCCO3)n2)c1F)c1cc(F)ccc1F` (centres unmarked) [Example 209], for which the IC50 in assay [1] (setting [4]) is less than 100 nM; in assay [1] (setting [5]), not above 3.16 nM; in assay [2] (setting [6]), less than 100 nM; in assay [2] (setting [7]) it was less than 100 nM; in assay [3] (setting [8]), less than 100 nM; in assay [3] (setting [9]) it was less than 100 nM.
Consider `CC(C)(C)c1nc(-c2cccc(NS(=O)(=O)c3cc(F)ccc3F)c2F)c(-c2ccnc(NCCO)n2)s1` [Example 210], for which the IC50 in assay [1] (setting [4]) was less than 100 nM; in assay [1] (setting [5]), not above 3.16 nM; in assay [2] (setting [6]), less than 100 nM; in assay [2] (setting [7]) it was less than 100 nM; in assay [3] (setting [8]) it was less than 100 nM; in assay [3] (setting [9]), less than 100 nM.
Consider `COCCCNc1nccc(-c2sc(C(C)(C)C)nc2-c2cccc(NS(=O)(=O)c3cc(F)ccc3F)c2F)n1` [Example 211], for which the IC50 was less than 100 nM in assay [1] (setting [4]); not above 3.16 nM in assay [1] (setting [5]); less than 100 nM in assay [2] (setting [6]); less than 100 nM in assay [2] (setting [7]); less than 100 nM in assay [3] (setting [8]); less than 100 nM in assay [3] (setting [9]).
As for `CCOCCNc1nccc(-c2sc(C(C)(C)C)nc2-c2cccc(NS(=O)(=O)c3cc(F)ccc3F)c2F)n1` [Example 212], the IC50 in assay [1] (setting [4]) is less than 100 nM; in assay [1] (setting [5]) it was not above 3.16 nM; in assay [2] (setting [6]) it was less than 100 nM; in assay [2] (setting [7]) it was less than 100 nM; in assay [3] (setting [8]), less than 100 nM; in assay [3] (setting [9]), less than 100 nM.
Consider `CC(C)(C)c1nc(-c2cccc(NS(=O)(=O)c3cc(F)ccc3F)c2F)c(-c2ccnc(NCC3CCCO3)n2)s1` (centres unmarked) [Example 213], for which the IC50 in assay [1] (setting [4]) is less than 100 nM; in assay [1] (setting [5]), not above 3.16 nM; in assay [2] (setting [6]), less than 100 nM; in assay [2] (setting [7]) it was less than 100 nM; in assay [3] (setting [8]), less than 100 nM; in assay [3] (setting [9]), less than 100 nM.
On to `CC(C)(C)c1nc(-c2cccc(NS(=O)(=O)c3cc(F)ccc3F)c2F)c(-c2ccnc(CCS(C)(=O)=O)n2)s1` [Example 214], for which the IC50 was less than 100 nM in assay [1] (setting [4]); not above 3.16 nM in assay [1] (setting [5]); less than 100 nM in assay [2] (setting [6]); less than 100 nM in assay [2] (setting [7]); less than 100 nM in assay [3] (setting [8]); less than 100 nM in assay [3] (setting [9]).
For `CC(C)(C)c1nc(-c2cccc(NS(=O)(=O)c3cc(F)ccc3F)c2F)c(-c2ccnc(CCN3CCOCC3)n2)s1` [Example 215], the IC50 in assay [1] (setting [4]) was less than 100 nM; in assay [1] (setting [10]), 3.16 to 31.6 nM; in assay [2] (setting [6]), less than 100 nM; in assay [2] (setting [7]), less than 100 nM; in assay [3] (setting [8]), less than 100 nM; in assay [3] (setting [9]), less than 100 nM.
Consider `CC(C)(C)c1nc(-c2cccc(NS(=O)(=O)c3cc(F)ccc3F)c2F)c(-c2ccnc(CCN3CCS(=O)(=O)CC3)n2)s1` [Example 216], for which the IC50 was less than 100 nM in assay [1] (setting [4]), 3.16 to 31.6 nM in assay [1] (setting [10]), less than 100 nM in assay [2] (setting [7]) and less than 100 nM in assay [3] (setting [9]).
On to `CC(C)(C)c1nc(-c2cccc(NS(=O)(=O)c3cc(F)ccc3F)c2F)c(-c2ccnc(CCCl)n2)s1` [Example 217], for which the IC50 in assay [1] (setting [4]) is less than 100 nM; in assay [1] (setting [5]), not above 3.16 nM; in assay [2] (setting [7]), less than 100 nM; in assay [3] (setting [9]), less than 100 nM.
As for `CC(C)(C)c1nc(-c2cccc(NS(=O)(=O)c3cccc(F)c3)c2F)c(-c2ccnc(N)n2)s1` [Example 218, N-{3-[5-(2-amino-4-pyrimidinyl)-2-(1,1-dimethylethyl)-1,3-thiazol-4-yl]-2-fluorophenyl}-3-fluorobenzenesulfonamide], the figures for the IC50 in assay [1] (setting [5]), in assay [2] (setting [7]) and in assay [3] (setting [9]) were not above 3.16 nM, less than 100 nM and less than 100 nM, respectively.
With `CC(C)(C)c1nc(-c2cccc(NS(=O)(=O)c3ccccc3)c2F)c(-c2ccnc(N)n2)s1` [Example 219, N-{3-[5-(2-amino-4-pyrimidinyl)-2-(1,1-dimethylethyl)-1,3-thiazol-4-yl]-2-fluorophenyl}benzenesulfonamide], the IC50 in assay [1] (setting [10]) is 3.16 to 31.6 nM; in assay [2] (setting [7]), less than 100 nM; in assay [3] (setting [9]) it was less than 100 nM.
`Cc1nccc(-c2sc(C(C)(C)C)nc2-c2c(F)ccc(NS(=O)(=O)c3cccc(F)c3)c2F)n1` [Example 220, N-{3-[2-(1,1-dimethylethyl)-5-(2-methyl-4-pyrimidinyl)-1,3-thiazol-4-yl]-2,4-difluorophenyl}-3-fluorobenzenesulfonamide]: the IC50 in assay [1] (setting [10]) is 3.16 to 31.6 nM; in assay [2] (setting [7]), less than 100 nM; in assay [3] (setting [9]), less than 100 nM.
Take `CC(C)(C)c1nc(-c2c(F)ccc(NS(=O)(=O)c3cccc(F)c3)c2F)c(-c2ccncn2)s1` [Example 221, N-{3-[2-(1,1-dimethylethyl)-5-(4-pyrimidinyl)-1,3-thiazol-4-yl]-2,4-difluorophenyl}-3-fluorobenzenesulfonamide]: the IC50 in assay [1] (setting [5]) is not above 3.16 nM; in assay [2] (setting [7]) it was less than 100 nM; in assay [3] (setting [9]), less than 100 nM.
For the compound `Cc1nccc(-c2sc(C(C)(C)C)nc2-c2cccc(NS(=O)(=O)c3cccc(F)c3)c2F)n1` [Example 222, N-{3-[2-(1,1-dimethylethyl)-5-(2-methyl-4-pyrimidinyl)-1,3-thiazol-4-yl]-2-fluorophenyl}-3-fluorobenzenesulfonamide], the figures for the IC50 in assay [1] (setting [10]), in assay [2] (setting [7]) and in assay [3] (setting [9]) were 3.16 to 31.6 nM, less than 100 nM and less than 100 nM, respectively.
On to `CC(C)(C)c1nc(-c2cccc(NS(=O)(=O)c3cccc(F)c3)c2F)c(-c2ccncn2)s1` [Example 223, N-{3-[2-(1′-dimethylethyl)-5-(4-pyrimidinyl)-1,3-thiazol-4-yl]-2-fluorophenyl}-3-fluorobenzenesulfonamide], for which the values for the IC50 in assay [1] (setting [5]), in assay [2] (setting [7]) and in assay [3] (setting [9]) were not above 3.16 nM, less than 100 nM and less than 100 nM, respectively.
On to `CC(C)(C)c1nc(-c2cccc(NS(=O)(=O)c3ccccc3F)c2F)c(-c2ccncn2)s1` [Example 224, N-{3-[2-(1,1-dimethylethyl)-5-(4-pyrimidinyl)-1,3-thiazol-4-yl]-2-fluorophenyl}-2-fluorobenzenesulfonamide], for which the IC50 in assay [1] (setting [5]) was not above 3.16 nM; in assay [2] (setting [7]), less than 100 nM; in assay [3] (setting [9]), less than 100 nM.
In the case of `Cc1nccc(-c2sc(C(C)(C)C)nc2-c2cccc(NS(=O)(=O)c3ccccc3F)c2F)n1` [Example 225, N-{3-[2-(1,1-dimethylethyl)-5-(2-methyl-4-pyrimidinyl)-1,3-thiazol-4-yl]-2-fluorophenyl}-2-fluorobenzenesulfonamide], the values for the IC50 in assay [1] (setting [10]), in assay [2] (setting [7]) and in assay [3] (setting [9]) were 3.16 to 31.6 nM, less than 100 nM and less than 100 nM, respectively.
Take `CCOC(=O)CCc1nccc(-c2sc(C(C)(C)C)nc2-c2cccc(NS(=O)(=O)c3c(F)cccc3F)c2F)n1` [Example 226, ethyl 3-{4-[4-(3-{[(2,6-difluorophenyl)sulfonyl]amino}-2-fluorophenyl)-2-(1,1-dimethylethyl)-1,3-thiazol-5-yl]-2-pyrimidinyl}propanoate]: the figures for the IC50 in assay [1] (setting [5]), in assay [2] (setting [7]) and in assay [3] (setting [9]) were not above 3.16 nM, less than 100 nM and less than 100 nM, respectively.
With `O=S(=O)(Nc1cccc(-c2nc(N3CCOCC3)sc2-c2ccncn2)c1F)c1cc(F)ccc1F` [Example 227, 2,5-difluoro-N-{2-fluoro-3-[2-(4-morpholinyl)-5-(4-pyrimidinyl)-1,3-thiazol-4-yl]phenyl}benzenesulfonamide], the results for the IC50 in assay [1] (setting [5]), in assay [2] (setting [7]) and in assay [3] (setting [9]) were not above 3.16 nM, less than 100 nM and less than 100 nM, respectively.
For the compound `CC(C)(C)c1nc(-c2cccc(NS(=O)(=O)c3cc(F)ccc3F)c2Cl)c(-c2ccncn2)s1` [Example 228, N-{2-chloro-3-[2-(1,1-dimethylethyl)-5-(4-pyrimidinyl)-1,3-thiazol-4-yl]phenyl}-2,5-difluorobenzenesulfonamide], the IC50 in assay [1] (setting [5]) was not above 3.16 nM; in assay [2] (setting [7]), less than 100 nM; in assay [3] (setting [9]), less than 100 nM.
For `Cc1nccc(-c2sc(C(C)(C)C)nc2-c2cccc(NS(=O)(=O)c3cc(F)ccc3F)c2Cl)n1` [Example 229, N-{2-chloro-3-[2-(1,1-dimethylethyl)-5-(2-methyl-4-pyrimidinyl)-1,3-thiazol-4-yl]phenyl}-2,5-difluorobenzenesulfonamide], the IC50 was 3.16 to 31.6 nM in assay [1] (setting [10]), less than 100 nM in assay [2] (setting [7]) and less than 100 nM in assay [3] (setting [9]).
Take `CC(C)(C)c1nc(-c2cccc(NS(=O)(=O)c3cccnc3)c2F)c(-c2ccnc(N)n2)s1` [Example 230, N-{3-[5-(2-amino-4-pyrimidinyl)-2-(1,1-dimethylethyl)-1,3-thiazol-4-yl]-2-fluorophenyl}-3-pyridinesulfonamide]: the IC50 is not above 3.16 nM in assay [1] (setting [5]), less than 100 nM in assay [2] (setting [7]) and less than 100 nM in assay [3] (setting [9]).
`CC(C)(C)c1nc(-c2cccc(NS(=O)(=O)c3ccco3)c2F)c(-c2ccnc(N)n2)s1` [Example 231, N-{3-[5-(2-amino-4-pyrimidinyl)-2-(1,1-dimethylethyl)-1,3-thiazol-4-yl]-2-fluorophenyl}-2-furansulfonamide]: the IC50 was not above 3.16 nM in assay [1] (setting [5]), less than 100 nM in assay [2] (setting [7]) and less than 100 nM in assay [3] (setting [9]).
Take `CC(C)(C)c1nc(-c2cccc(NS(=O)(=O)c3cccs3)c2F)c(-c2ccnc(N)n2)s1` [Example 232, N-{3-[5-(2-amino-4-pyrimidinyl)-2-(1,1-dimethylethyl)-1,3-thiazol-4-yl]-2-fluorophenyl}-2-thiophenesulfonamide]: the results for the IC50 in assay [1] (setting [5]), in assay [2] (setting [7]) and in assay [3] (setting [9]) were not above 3.16 nM, less than 100 nM and less than 100 nM, respectively.
